According to patent publication US10202385B2, “Use of substituted 2,3-dihydroimidazo[1,2-C]quinazolines” (BAYER INTELLECTUAL PROPERTY GMBH, priority 2011, dated 2019):
Where a name gives a salt, the structure may show the parent alone.

Key:
Assay type in all cases: cell-based
MDA-MB-468 tumor cells [1] = experiment: Apoptosis induction (PARP cleavage) in MDA-MB-468 cells; settings: PTEN null, EGFR high, Bcl-2 negative MDA-MB-468
Experimental: (§1) Tumor cells were seeded in 384-well plates at a concentration of 1000-2500 cells/well/25 μL depending on cell lines. After overnight incubation, cells were treated with compounds (5 μL). Then, Caspase 3/7 activities were determined at 24 to 48 hours post-treatment using Caspase-Glo3/7 assay kits (Promega Cat # G8212).
The cellular expression of the mTORC2 component Rictor was assessed by western blot analysis (A). Induction of PARP cleavage by compound A treatment in combination with inhibition of mTORC1 or mTORC2 (B). shControl and shRictor MDA-MB468 cells were treated with indicated agents for 48 hours, and cleavage of PARP was analyzed. GAPDH was used as an internal protein control.

breast tumor cell lines = experiment: 72-hour tumor cell proliferation assay, molecular profiling in 24 breast tumor cell lines
Experimental: (§2) In accordance with the invention, the compound were assessed in a cell-based assay that measures the capacity of the compounds to inhibit tumor cell proliferation following a 72-hour drug exposure. Cell viability was conducted by Invitrogen (breast Oncopanel, Invitrogen, USA), or was determined using CellTiter-Glo® Luminescent Cell Viability Assay (Promega) as follows. Cells were plated at 300-5000 cells/well depending on the cell lines or microtiter plates (96- or 384-well) in 100 μL growth medium in 96-well and 20 μL growth medium in 384-well microtiterplate. For each cell line assayed, cells were plated onto a separate plate for determination of luminescence at t=0 hour and t=72 hour time points. Following overnight incubation at 37° C., luminescence values for the t=0 samples were determined. Dose plates for the t=72 hour time points were treated with compounds diluted into growth medium. Cells were then incubated for 72 hours at 37° C. Luminescence values for the t=72 hour samples were determined. For data analysis, briefly, t=0 values were subtracted from those determined for the t=72 hour time points, for both the treated and untreated samples. Percent differences in luminescence between drug-treated and control values were used to determine the percent inhibition of growth.
Using a set of breast cancer cell lines representing differential receptor expression status and genetic alterations of PIK3CA and PTEN, the anti-proliferative and apoptotic effects of Compound A were investigated.

T47D cells [2] = experiment: Apoptosis induction (PARP cleavage, Caspase-Glo 3/7) in T47D cells
Experimental: as §1
The combination effects of PI3K inhibitors and other agent were evaluated using combination index isobologram analysis (Chou et al. Pharmacology Reviews 2006). The efficacy parameters were the median effect in a 72-hour cell proliferation assay and the 24- or 48-hour Caspase 3/7 activity assay described above. Briefly, cells were plated in 384-well plate with 25 μl medium. […] The corresponding component doses of D1 and D2 at the E(I)C50/E(I)C90 were calculated and used for plotting isobolograms. The multiple drug effect was analyzed as described by Chou et al. (Pharmacology Reviews 2006) and the combination index was calculated using the formula: Combination Index=[D1x]/D1′+[D2x]/D2′ where D1x and D2x refer to the Drug 1 and Drug 2 concentration at EC50/IC50 or EC90/IC90, respectively, in combination; and D1′ and D2′ refer to the EC50/IC50 or EC90/IC90 values of D1 and D2, respectively, as single agents. […]

T47D cells [3] = experiment: 72-hour tumor cell proliferation assay in T47D cells; settings: T47D (PIK3CA mut)
Experimental: as §2, with “growth. […]” for “growth.”

[4] = system: breast tumor cells (BT-20, BT-474, KPL-4); experiment: Apoptosis induction (PARP cleavage, Caspase 3/7) in breast tumor cells
Experimental: as §1

MDA-MB-468 tumor cells [5] = experiment: Tumor cell proliferation assay in MDA-MB-468 cells; settings: PTEN null, EGFR high, Bcl-2 negative MDA-MB-468
Experimental: as §2, with “Dose plates for the t=72 hour time points were treated with compounds diluted into growth medium. Cells were then incubated for 72 hours at 37° C.” left out
The combination effects of PI3K inhibitors and other agent were evaluated using combination index isobologram analysis (Chou et al. Pharmacology Reviews 2006). […]

| IC50 (breast tumor cell lines; breast tumor cells with HER2 expression, n=8 cell lines, proliferation) | IC50 (breast tumor cell lines; breast tumor cells with PIK3CA mutation, n=7 cell lines, proliferation) | IC50 (breast tumor cell lines; wild type PIK3CA and HER2 negative breast cancer cells, n=12, proliferation) | anti-proliferative activity IC50 (T47D cells [3]) | Structure (SMILES) | induction of apoptosis (MDA-MB-468 tumor cells [1]) | apoptosis induction (T47D cells [2]; T47D (PIK3CA mut), high level of Bcl-2) | apoptosis induction ([4]; PIK3CA mutant and or HER2 positive breast tumor cells (such as BT20, BT474)) | inducing apoptosis ([4]; breast cancer cells expressing HER2 and/or PIK3CA mutation in the absence of Bcl-2 (conclusion)) | apoptosis after exposure ([4]; tumor cells that lack Bcl-2 expression (KPL-4, BT-474, BT-20)) | inhibition of proliferation (MDA-MB-468 tumor cells [5]) | sensitization to apoptosis in combination with Compound A (T47D cells [2]; T47D cells, ABT-737 combined with Compound A) |
| --- | --- | --- | --- | --- | --- | --- | --- | --- | --- | --- | --- |
| 0.019 µM | 0.017 µM | 0.773 µM | single-digit | COc1c(OCCCN2CCOCC2)ccc2c1N=C(NC(=O)c1cnc(N)nc1)N1CCN=C21 [Compound A, 2-amino-N-[7-methoxy-8-(3-morpholin-4-ylpropoxy)-2,3-dihydroimidazo[1,2-c]quinazolin-5-yl]pyrimidine-5-carboxamide dihydrochloride] | resistant | resistant to apoptosis | strong activity | extremely effective | immediately underwent apoptosis | insensitive |  |
|  |  |  |  | CN(C)CC[C@H](CSc1ccccc1)Nc1ccc(S(=O)(=O)NC(=O)c2ccc(N3CCN(Cc4ccccc4-c4ccc(Cl)cc4)CC3)cc2)cc1[N+](=O)[O-] [ABT-737, reference compound] |  |  |  |  |  |  | sensitized T47D cells to apoptosis |
